Experiments:
[1] = molecular target: NEP activity in ‘Control’ human lung homogenates (Homo sapiens, UniProt P08473); experiment: biochemical; details: read-out: inhibition of NEP activity in ‘Control’ crude lung homogenates
Method: (§1) Lung samples ([…]) or PA SMCs were homogenized in 0.5 ml 20 mM MES, pH 6.5, containing protease inhibitors, and for PA SMCs, 0.5% CHAPS. After centrifugation (10,000×g, 10 min), supernatant was stored at −80° C. NEP activity was measured as described (Dempsey et al., 2009). DPPIV activity was measured by DPPIV-Glo Protease Assay (Promega). Western analyses (Dempsey et al., 2009) with anti-human NEP (56C6, Neomarkers) were assessed by densitometry.

recombinant human NEP = recombinant human NEP (Homo sapiens, UniProt P08473); experiment: biochemical; details: read-out: inhibition of residual rNEP activity
Chain of recombinant human NEP (P08473 whole entry): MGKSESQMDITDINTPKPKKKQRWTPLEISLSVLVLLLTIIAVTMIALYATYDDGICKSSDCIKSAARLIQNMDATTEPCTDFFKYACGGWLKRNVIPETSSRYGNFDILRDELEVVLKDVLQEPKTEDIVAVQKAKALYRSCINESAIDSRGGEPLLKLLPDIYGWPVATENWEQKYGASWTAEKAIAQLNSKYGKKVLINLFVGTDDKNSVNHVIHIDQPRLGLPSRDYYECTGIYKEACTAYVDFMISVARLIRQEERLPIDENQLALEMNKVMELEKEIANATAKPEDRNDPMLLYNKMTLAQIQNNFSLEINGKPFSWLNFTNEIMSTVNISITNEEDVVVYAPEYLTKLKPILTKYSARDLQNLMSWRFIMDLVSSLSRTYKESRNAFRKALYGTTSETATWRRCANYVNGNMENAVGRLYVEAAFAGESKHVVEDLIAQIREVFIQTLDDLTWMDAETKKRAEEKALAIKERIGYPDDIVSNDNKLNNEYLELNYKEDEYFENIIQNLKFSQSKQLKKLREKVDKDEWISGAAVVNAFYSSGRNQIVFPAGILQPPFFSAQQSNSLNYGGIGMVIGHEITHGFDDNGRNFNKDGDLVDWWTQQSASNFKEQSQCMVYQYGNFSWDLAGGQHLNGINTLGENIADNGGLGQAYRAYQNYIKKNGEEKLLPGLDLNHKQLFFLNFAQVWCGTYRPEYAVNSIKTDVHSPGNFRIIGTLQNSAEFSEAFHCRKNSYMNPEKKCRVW
Method: as §1

NEP in human PA SMCs = molecular target: T1, NEP in human PA SMCs (Homo sapiens, UniProt P08473); experiment: NEP catalytic activity in human PA SMCs (fluorometric); format: cell-based; details: for prevention of H2O2-induced decreases in PA SMC NEP activity: antioxidant added 0.5 h before 4 h H2O2 (100 μM), MnTMPyp 20 μM, PEG-catalase 40 units/ml
T1 construct: host or cells: primary human PA SMCs, passages 6-10
T1 sequence (P08473 whole entry): as above
Method: as §1
(§2) PA SMCs were isolated from the main PA of ‘normal’ human tissue donors (Clonetics®, Basel, Switzerland, α-SM actin positive, Factor VIII negative). Passages 6-10 were maintained in SmBM® (5% FBS), at 37° C., and used for experimentation. […] The antioxidants Tiron (2.5 mM; Sigma) (Taiwo, 2008), MnTMPyp (an SOD/catalase mimetic (Day et al., 1997), 20 μM; Calbiochem), or polyethylene glycol (PEG) conjugated catalase Beckman et al., 1988) (40 units/ml; Sigma), or the protein degradation inhibitors (Folimycin Huss and Wieczorek, 2009) for lysosomes, 50 nM; Clastolactacystin β-lactone (Dick et al., 1996) for proteasomes, 1 μM; Calbiochem) were added 0.5 or 2 h, respectively, before exposures.

[2] = tested on: NEP mRNA in human PA SMCs; experiment: NEP mRNA levels in human PA SMCs (qRT-PCR); format: cell-based
Method: as §2

NEP+/+ PASMCs [3] = experiment: Migration of NEP+/+ PASMCs (scratch assay); format: cell-based, mouse; details: wild-type PASMCs, 48 h treatment; phosphoramidon 10 μMole/L or NEP siRNA 10 nMole/L; serum 0.2%, PDGF 10 ng/ml
Method: (§3) Mice were anesthetized with sodium pentobarbital (100 mg/kg i.p.). Proximal medial tissue was micro dissected from individual age matched 13-17 wk old NEP+/+ and NEP−/− littermate mice. Tissue was digested with […] and cells were grown in DMEM-F-12 medium containing 10% fetal bovine serum (FBS) as described (Petkov et al., 2003). PASMCs were characterized by light microscopic appearance, growth characteristics, and stained for α-SM-actin, SM-myosin, Factor VIII and LDL between passage 3 and 6. PASMCs were used for studies between passage 6 and 13.
Briefly, PASMCs were grown to confluence on 60 mm plates (Hamidi et al., 2008). The cells were serum starved in DMEM-F-12 medium with 0.2% serum for 24 h, and scraped with a sterile P200 pipette tip to generate a cell-free zone. PASMCs were then rinsed with medium and incubated with either 0.2% serum or 10 ng/ml PDGF-BB and cells that migrated into the scratch were visualized by light microscopic imaging. Quantitation of migration was done by counting the number of PASMCs in a 5 cm^2 area of the scratch. […]
Migration was determined by a modified Boyden chamber assay using a polycarbonate filter with […] pore diameter obtained from Neuroprobe (Gaithersburg, Md.) (Said et al., 2007). […] The membranes were examined under a microscope and the cells that migrated to the lower surface were counted (five random 20× fields/well).

NEP+/+ PASMCs [4] = experiment: Proliferation of NEP+/+ PASMCs (3H-thymidine incorporation); format: cell-based, mouse; details: wild-type PASMCs, 48 h treatment; phosphoramidon 10 μMole/L or NEP siRNA 10 nMole/L; serum 0.2%, PDGF 10 ng/ml
Method: as §3
The effects of growth factors and neuropeptides on DNA synthesis were evaluated as previously reported (Petkov et al., 2003). SMCs were grown in DMEM containing 10% FBS in 24-well plates for about 16 hr. PASMCs were then incubated in DMEM supplemented with 0.2% FBS for 24 hr to make them quiescent. […] [^3H]-thymidine obtained from Perkin Elmer (Waltham, Mass.) at 1 mCi/ml was added for the last 6 hr. After labeling was completed, the cells were washed twice with ice-cold PBS, and proteins were precipitated with 5% perchloric acid. The precipitate was dissolved with 0.5N NaOH and SDS and radioactivity was measured using a liquid scintillation counter made by Beckman Coulter, Inc. (Brea, Calif.).

[5] = tested on: SM-contractile proteins (α-SM-actin, SM-myosin, SM-22, calponin); experiment: SM-contractile protein expression in PASMCs (Western blotting); format: cell-based, mouse
Method: Cell lysates were prepared in immunoprecipitation buffer (20 mM Tris HCl (pH 7.5), 150 mM NaCl, 1 mM EDTA, 10% glycerol, 1% Nonidet P-40; 1 mM dithiothreitol, 10 mM NaF, 1 mM sodium orthovanadate, 10 μg/ml leupeptin, 10 μg/ml aprotinin, 10 μg/ml pepstatin A, and 1 mM phenylmethylsulfonyl fluoride) (Petkov et al., 2003). Cells were scraped from the plates, lysed on ice for 30 min. Cellular debris was eliminated by centrifugation for 10 min at 10,000 rpm. The protein concentration was determined by the BCA protein Assay®. Proteins (20-100 μg) were separated on SDS-PAGE and transferred to nitrocellulose membranes obtained from GE Healthcare, (Piscataway, N.J.). Membranes were blocked in PBS containing 0.1% Tween-20 and 1% BSA for 1 h at room temperature. Membranes were incubated with primary antibodies overnight at 4° C., and with secondary antibodies for 1 h at room temperature. All antibodies were diluted in PBS containing 0.1% Tween 20 and 1% BSA, and ECL reagent obtained from Perkin Elmer (Waltham, Mass.) was used for immunodetection. GAPDH was used as a loading control.
A Bio-Rad gel scanner and densitometer (Gel DocXR with Quantity 1 program) were used to assess the intensity of the bands obtained by Western blots. […] The arbitrary units obtained were normalized to GAPDH and the ratios for NEP+/+ to NEP−/− PASMCs were calculated. […]

[6] = molecular target: T2, NEP activity in wild-type cells (Mus musculus, UniProt Q61391); details: phosphoramidon 10 μmole/liter; cited from earlier work
T2 construct: endogenous in cells; host or cells: wild-type (NEP+/+) mouse PASMCs
T2 sequence (Q61391 1-750): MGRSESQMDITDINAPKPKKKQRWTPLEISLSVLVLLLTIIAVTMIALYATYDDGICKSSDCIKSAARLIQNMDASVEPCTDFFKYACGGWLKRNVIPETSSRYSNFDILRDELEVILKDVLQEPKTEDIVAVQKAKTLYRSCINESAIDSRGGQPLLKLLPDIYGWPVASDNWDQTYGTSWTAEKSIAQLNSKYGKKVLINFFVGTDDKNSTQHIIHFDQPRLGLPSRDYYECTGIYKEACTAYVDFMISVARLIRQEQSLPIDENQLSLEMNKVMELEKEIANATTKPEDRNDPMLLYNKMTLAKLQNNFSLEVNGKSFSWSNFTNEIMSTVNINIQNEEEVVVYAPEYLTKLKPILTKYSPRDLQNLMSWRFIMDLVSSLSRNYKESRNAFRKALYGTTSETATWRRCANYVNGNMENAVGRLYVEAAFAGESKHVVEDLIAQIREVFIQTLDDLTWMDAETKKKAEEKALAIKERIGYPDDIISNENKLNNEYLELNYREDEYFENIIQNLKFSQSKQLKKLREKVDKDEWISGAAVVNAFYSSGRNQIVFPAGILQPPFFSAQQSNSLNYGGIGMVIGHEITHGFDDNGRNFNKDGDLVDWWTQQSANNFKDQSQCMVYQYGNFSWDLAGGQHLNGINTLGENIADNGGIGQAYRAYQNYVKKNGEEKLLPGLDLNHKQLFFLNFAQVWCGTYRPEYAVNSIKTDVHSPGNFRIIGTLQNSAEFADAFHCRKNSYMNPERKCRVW

NEP KO PA SMCs = details: added to the cell culture media or lentiviral transduction; cited from earlier work

Chain of NEP activity in ‘Control’ human lung homogenates (P08473 whole entry): as the sequence (P08473 whole entry) above

## OO [H2O2, hydrogen peroxide]
[1]
  inhibition at 100 µM: 38%
Recombinant human NEP
  inhibition at 100 µM: 68%
NEP in human PA SMCs; 4 h exposure, CSE 5 μg/ml, H2O2 100 μM
  NEP activity after exposure, without Tiron: significantly decreased
[2]; 100 μM H2O2, 48 h
  effect on NEP mRNA expression: did not significantly decrease
[2]; after 4 h exposure to H2O2, preliminary experiments
  transient decrease in NEP mRNA: 40%

## O=S(=O)(O)c1cc(O)c(O)c(S(=O)(=O)O)c1 [Tiron]
NEP in human PA SMCs; Tiron 2.5 mM, 0.5 h before and throughout 4 h exposure
  prevention of decreases in NEP activity due to CSE, hypoxia or H2O2: prevented
NEP in human PA SMCs; Tiron 2.5 mM, normoxia
  NEP activity under normoxia with Tiron vs normoxia alone: did not differ significantly
NEP in human PA SMCs; Tiron 2.5 mM
  prevention of H2O2-induced decreases in PA SMC NEP activity: prevented

## CC(C)C[C@H](NP(=O)(O)O[C@@H]1O[C@@H](C)[C@H](O)[C@@H](O)[C@H]1O)C(=O)N[C@@H](Cc1c[nH]c2ccccc12)C(=O)O [phosphoramidon]
NEP+/+ PASMCs [3]
  migration in response to serum and PDGF: increased
NEP+/+ PASMCs [4]
  proliferation in response to serum and PDGF: increased
[5]; phosphoramidon 10 μMole/L or NEP siRNA 10 nMole/L
  expression of SM-contractile proteins in NEP+/+ cells: decrease
[6]
  inhibition of NEP activity in wild-type cells: completely inhibits

## MnTMPyp
NEP in human PA SMCs; Tiron 2.5 mM
  prevention of H2O2-induced decreases in PA SMC NEP activity: prevented

B1: PEG-catalase: polyethylene glycol (PEG) conjugated catalase, antioxidant (conjugate, UniProt P00432 2-527, looked up)
Catalase: ADNRDPASDQMKHWKEQRAAQKPDVLTTGGGNPVGDKLNSLTVGPRGPLLVQDVVFTDEMAHFDRERIPERVVHAKGAGAFGYFEVTHDITRYSKAKVFEHIGKRTPIAVRFSTVAGESGSADTVRDPRGFAVKFYTEDGNWDLVGNNTPIFFIRDALLFPSFIHSQKRNPQTHLKDPDMVWDFWSLRPESLHQVSFLFSDRGIPDGHRHMNGYGSHTFKLVNANGEAVYCKFHYKTDQGIKNLSVEDAARLAHEDPDYGLRDLFNAIATGNYPSWTLYIQVMTFSEAEIFPFNPFDLTKVWPHGDYPLIPVGKLVLNRNPVNYFAEVEQLAFDPSNMPPGIEPSPDKMLQGRLFAYPDTHRHRLGPNYLQIPVNCPYRARVANYQRDGPMCMMDNQGGAPNYYPNSFSAPEHQPSALEHRTHFSGDVQRFNSANDDNVTQVRTFYLKVLNEEQRKRLCENIAGHLKDAQLFIQKKAVKNFSDVHPEYGSRIQALLDKYNEEKPKNAVHTYVQHGSHLSAREKANL
modifications: PEG conjugated
notes: polyethylene glycol (PEG) conjugated catalase, antioxidant
NEP in human PA SMCs; Tiron 2.5 mM
  prevention of H2O2-induced decreases in PA SMC NEP activity: prevented

B2: rNEP: recombinant human neprilysin protein (protein, UniProt P08473 2-750, looked up)
Neprilysin: GKSESQMDITDINTPKPKKKQRWTPLEISLSVLVLLLTIIAVTMIALYATYDDGICKSSDCIKSAARLIQNMDATTEPCTDFFKYACGGWLKRNVIPETSSRYGNFDILRDELEVVLKDVLQEPKTEDIVAVQKAKALYRSCINESAIDSRGGEPLLKLLPDIYGWPVATENWEQKYGASWTAEKAIAQLNSKYGKKVLINLFVGTDDKNSVNHVIHIDQPRLGLPSRDYYECTGIYKEACTAYVDFMISVARLIRQEERLPIDENQLALEMNKVMELEKEIANATAKPEDRNDPMLLYNKMTLAQIQNNFSLEINGKPFSWLNFTNEIMSTVNISITNEEDVVVYAPEYLTKLKPILTKYSARDLQNLMSWRFIMDLVSSLSRTYKESRNAFRKALYGTTSETATWRRCANYVNGNMENAVGRLYVEAAFAGESKHVVEDLIAQIREVFIQTLDDLTWMDAETKKRAEEKALAIKERIGYPDDIVSNDNKLNNEYLELNYKEDEYFENIIQNLKFSQSKQLKKLREKVDKDEWISGAAVVNAFYSSGRNQIVFPAGILQPPFFSAQQSNSLNYGGIGMVIGHEITHGFDDNGRNFNKDGDLVDWWTQQSASNFKEQSQCMVYQYGNFSWDLAGGQHLNGINTLGENIADNGGLGQAYRAYQNYIKKNGEEKLLPGLDLNHKQLFFLNFAQVWCGTYRPEYAVNSIKTDVHSPGNFRIIGTLQNSAEFSEAFHCRKNSYMNPEKKCRVW
[5]; NEP−/− PASMC, lentiviral human NEP construct or rNEP 10 μg/ml
  levels of SM-markers (α-SM-actin, SM-22, calponin) in null PASMCs: restored
NEP KO PA SMCs
  proliferation of the NEP KO PA SMCs: dose-dependent inhibition
